Test results from article PMC6136360, “Novel group of tyrosyl-DNA-phosphodiesterase 1 inhibitors based on disaccharide nucleosides as drug prototypes for anti-cancer therapy” (Journal of Enzyme Inhibition and Medicinal Chemistry, 2018).

biological target: T1, TDP1 (Homo sapiens, UniProt Q9NUW8); test: Real-time fluorescence detection of TDP1 activity, single-stranded FAM/BHQ biosensor; assay type: biochemical; settings: 37 compared to 36; 42 compared to 41; ratio of IC50
T1 construct: made in house; host or cells: E. coli
Protocol: Conditions and details for our real-time detection of TDP1 activity using the single-stranded and hairpin fluorescent biosensors were reported in our previous work[47]. Briefly, the approach consists in fluorescence intensity measurement of the reaction of quencher removal from the fluorophore-quencher coupled DNA-oligonucleotide catalysed by TDP1 in the presence of inhibitor and in the absence of it (the control samples contained 1% DMSO). Reaction mixtures (200 µl) contained TDP1 buffer (50 mM Tris-HCl, pH 8.0, 50 mM NaCl, 7 mM β-mercaptoethanol), oligonucleotide (50 nM substrate of TDP1), testable inhibitor and purified TDP1 (1.5 nM). The reactions were incubated at a constant temperature of 26 °C in a POLARstar OPTIMA fluorimeter, BMG LABTECH, GmbH, to measure fluorescence every 55 s (Ex485/Em520 nm) during the linear phase (here data from 0 to 8 min). The average values of half maximal inhibitory concentration (IC50) were determined using an eleven-point concentration response curve in three independent experiments and calculated using MARS Data Analysis 2.0 (BMG LABTECH).
To discover inhibitors of TDP1 we recently developed original single-stranded and hairpin fluorophore–quencher coupled DNA-biosensors for real-time measurement of TDP1 cleavage activity. The single-stranded substrate is a 16-mer oligonucleotide containing both 5′-FAM fluorophore donor and a quenching 3′-BHQ moiety (Figure 1(A)). When the quencher is removed by TDP1, the fluorescence intensity increases and can be measured by fluorimeter (TDP1 catalysed reaction on biosensor is shown in Figure 3(A). Fluorescence intensity declines in the presence of inhibitor, the resulting curves of the dependence of TDP1 residual activity as a function of the concentration of inhibitors were obtained using 4-parameter logistic regression fit, which was used to calculate IC50 values[47]^,[58].
For primary screening, the effect of a large group of disaccharide nucleosides and their hydrophobic derivatives on human recombinant TDP1 activity has been evaluated by fluorescent method on a single-stranded substrate described above.

T1 sequence (Q9NUW8 whole entry): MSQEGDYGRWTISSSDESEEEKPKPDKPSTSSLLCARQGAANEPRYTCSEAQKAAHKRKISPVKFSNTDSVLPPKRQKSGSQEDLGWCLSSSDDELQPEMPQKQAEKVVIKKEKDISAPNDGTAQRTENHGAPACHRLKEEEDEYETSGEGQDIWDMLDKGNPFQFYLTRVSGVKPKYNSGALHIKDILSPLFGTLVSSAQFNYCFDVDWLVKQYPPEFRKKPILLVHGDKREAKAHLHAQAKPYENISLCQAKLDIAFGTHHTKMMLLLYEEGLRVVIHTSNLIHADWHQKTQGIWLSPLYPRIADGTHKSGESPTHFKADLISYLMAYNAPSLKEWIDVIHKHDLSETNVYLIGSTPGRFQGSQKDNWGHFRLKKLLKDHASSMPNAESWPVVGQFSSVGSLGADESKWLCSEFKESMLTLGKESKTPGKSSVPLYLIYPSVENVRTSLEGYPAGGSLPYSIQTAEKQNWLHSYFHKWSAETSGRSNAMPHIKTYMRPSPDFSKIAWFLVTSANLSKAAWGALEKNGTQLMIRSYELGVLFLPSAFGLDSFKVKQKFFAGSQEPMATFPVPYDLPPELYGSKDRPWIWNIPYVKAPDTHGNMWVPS

Increase of efficiency of TDP1 inhibition by appending TBDPS at 5'-position	Structure (SMILES)
about 1.6 times	CC(C)(C)[Si](OC[C@H]1O[C@@H](n2ccc(NC(=O)c3ccccc3)nc2=O)C[C@@H]1O[C@@H]1O[C@H](COC(=O)c2ccccc2)[C@@H](OC(=O)c2ccccc2)[C@H]1OC(=O)c1ccccc1)(c1ccccc1)c1ccccc1 [Compound 37]
about 3.5 times	CC(C)(C)[Si](OC[C@H]1O[C@@H](n2cc(I)c(=O)[nH]c2=O)C[C@@H]1O[C@@H]1O[C@H](COC(=O)c2ccccc2)[C@@H](OC(=O)c2ccccc2)[C@H]1OC(=O)c1ccccc1)(c1ccccc1)c1ccccc1 [Compound 42]

same assay, conditions: single-stranded fluorescent biosensor 50 nM, TDP1 1.5 nM, 26 °C; read-out: IC50 (half-maximal inhibitory concentration) of TDP1 activity

IC50	Structure (SMILES)
900 ± 100 nM	CC(C)(C)[Si](OC[C@H]1O[C@@H](n2ccc(NC(=O)c3ccccc3)nc2=O)C[C@@H]1O[C@@H]1O[C@H](COC(=O)c2ccccc2)[C@@H](OC(=O)c2ccccc2)[C@H]1OC(=O)c1ccccc1)(c1ccccc1)c1ccccc1 [Compound 37]
400 ± 100 nM	CC(C)[Si]1(C(C)C)OC[C@H]2O[C@@H](n3ccc(NC(=O)c4ccccc4)nc3=O)[C@H](O[C@@H]3O[C@H](COC(=O)c4ccccc4)[C@@H](OC(=O)c4ccccc4)[C@H]3OC(=O)c3ccccc3)[C@@H]2O[Si](C(C)C)(C(C)C)O1 [Compound 16]
2600 ± 200 nM	O=C(Nc1ccn([C@@H]2O[C@H](CO)[C@@H](O)[C@H]2O[C@@H]2O[C@H](COC(=O)c3ccccc3)[C@@H](OC(=O)c3ccccc3)[C@H]2OC(=O)c2ccccc2)c(=O)n1)c1ccccc1 [Compound 13]
1000 ± 100 nM	Cc1cn([C@H]2C[C@H](O[C@@H]3O[C@H](COC(=O)c4ccccc4)[C@@H](OC(=O)c4ccccc4)[C@H]3OC(=O)c3ccccc3)[C@@H](CO[C@@H]3O[C@H](COC(=O)c4ccccc4)[C@@H](OC(=O)c4ccccc4)[C@H]3OC(=O)c3ccccc3)O2)c(=O)[nH]c1=O [Compound 33]
1500 ± 200 nM	O=C(Nc1ccn([C@H]2C[C@H](O[C@@H]3O[C@H](COC(=O)c4ccccc4)[C@@H](OC(=O)c4ccccc4)[C@H]3OC(=O)c3ccccc3)[C@@H](CO)O2)c(=O)n1)c1ccccc1 [Compound 36]
800 ± 100 nM	CC(C)(C)[Si](OC[C@H]1O[C@@H](n2cc(I)c(=O)[nH]c2=O)C[C@@H]1O[C@@H]1O[C@H](COC(=O)c2ccccc2)[C@@H](OC(=O)c2ccccc2)[C@H]1OC(=O)c1ccccc1)(c1ccccc1)c1ccccc1 [Compound 42]

same assay, conditions: single-stranded fluorescent biosensor, primary screening

Structure (SMILES)	Inhibitory effect on TDP1 activity (in words)
Nc1nc2c(ncn2[C@H]2C[C@H](O[C@@H]3O[C@H](CO)[C@@H](O)[C@H]3O)[C@@H](CO)O2)c(=O)[nH]1 [Compound 34]	not inhibited
Nc1ncnc2c1ncn2[C@@H]1O[C@H](CO)[C@@H](O)[C@H]1O[C@@H]1O[C@H](CO)[C@@H](O)[C@H]1O [Compound 1]	not inhibited
Cc1cn([C@H]2C[C@H](O[C@@H]3OC[C@@H](O)[C@@H](O)[C@H]3O)[C@@H](CO)O2)c(=O)[nH]c1=O [Compound 27]	did not observe any inhibitory effect
Nc1ncnc2c1ncn2[C@H]1C[C@H](O[C@@H]2O[C@H](CO)[C@@H](O)[C@H]2O)[C@@H](CO)O1 [Compound 22]	not inhibited
Nc1ccn([C@H]2C[C@H](O[C@@H]3O[C@H](CO)[C@@H](O)[C@H]3O)[C@@H](CO)O2)c(=O)n1 [Compound 35]	not inhibited
Cc1cn([C@H]2C[C@H](O[C@@H]3O[C@H](CO)[C@@H](O)[C@H]3O)[C@@H](COP(=O)(O)O)O2)c(=O)[nH]c1=O.N.N [Compound 26]	does not lead to the noticeable inhibitory effect
Cc1cn([C@@H]2C[C@H](O[C@@H](C=O)O[C@@H](C=O)CO)[C@@H](CO)O2)c(=O)[nH]c1=O [Compound 30]	did not lead to the noticeable inhibitory activity
CC(=O)O[C@H]1[C@H](O[C@H]2C[C@H](n3cc(C)c(=O)[nH]c3=O)O[C@@H]2CO)OC[C@@H](OC(C)=O)[C@H]1OC(C)=O [Compound 28]	did not observe any inhibitory effect
Cc1cn([C@H]2C[C@H](O[C@@H]3O[C@H](COP(=O)([O-])[O-])[C@@H](O)[C@H]3O)[C@@H](CO)O2)c(=O)[nH]c1=O.[Na+].[Na+] [Compound 25]	does not lead to the noticeable inhibitory effect
Nc1nc2c(ncn2[C@@H]2O[C@H](CO)[C@@H](O)[C@H]2O[C@@H]2O[C@H](CO)[C@@H](O)[C@H]2O)c(=O)[nH]1 [Compound 8]	not inhibited
Cc1cn([C@@H]2O[C@H](CO)[C@@H](O)[C@H]2O[C@@H]2O[C@H](CO)[C@@H](O)[C@H]2O)c(=O)[nH]c1=O [Compound 5]	not inhibited
O=c1ccn([C@@H]2O[C@H](CO)[C@@H](O)[C@H]2O[C@@H]2O[C@H](CO)[C@@H](O)[C@H]2O)c(=O)[nH]1 [Compound 17]	not inhibited
Nc1ccn([C@@H]2O[C@H](CO)[C@@H](O)[C@H]2O[C@@H]2O[C@H](CO)[C@@H](O)[C@H]2O)c(=O)n1 [Compound 12]	not inhibited

Continued, values first:

Inhibitory effect on TDP1 activity (in words)	Structure (SMILES)
not inhibited	Cc1cn([C@H]2C[C@H](O)[C@@H](CO[C@@H]3O[C@H](CO)[C@@H](O)[C@H]3O)O2)c(=O)[nH]c1=O [Compound 44]
not inhibited	Nc1ccn([C@H]2C[C@H](O)[C@@H](CO[C@@H]3O[C@H](CO)[C@@H](O)[C@H]3O)O2)c(=O)n1 [Compound 46]
not inhibited	Nc1ncnc2c1ncn2[C@H]1C[C@H](O)[C@@H](CO[C@@H]2O[C@H](CO)[C@@H](O)[C@H]2O)O1 [Compound 43]
did not observe any inhibitory effect	O=c1[nH]c(=O)n([C@H]2C[C@H](O[C@@H]3OC[C@@H](O)[C@@H](O)[C@H]3O)[C@@H](CO)O2)cc1I [Compound 40]
weak inhibitory effect	O=c1ccn([C@H]2C[C@H](O)[C@@H](CO[C@@H]3O[C@H](CO)[C@@H](O)[C@H]3O)O2)c(=O)[nH]1 [Compound 47]
weak inhibitory effect	Nc1nc2c(ncn2[C@H]2C[C@H](O)[C@@H](CO[C@@H]3O[C@H](CO)[C@@H](O)[C@H]3O)O2)c(=O)[nH]1 [Compound 45]
not inhibited	O=c1ccn([C@H]2C[C@H](O[C@@H]3O[C@H](CO)[C@@H](O)[C@H]3O)[C@@H](CO)O2)c(=O)[nH]1 [Compound 38]
